Experimental findings from patent publication US9713613B2, “Methods and compositions for the treatment of cancer and related hyperproliferative disorders” (priority 2007, dated 2017) are described below.

Experiment [1] has as its system endogenous SREBPs. Kind of experiment: Luciferase reporter assay (pSRE-Luc, normalized by β-gal) in HEK293 cells. Type of experiment: cell-based, human. Set-up: Luc/Gal: dose or concentration left out as unconfirmed. The procedure: On day 0, HEK293 cells were plated out in triplicate at a density of 5×10^3/well onto a 96-well plate in a Dulbecco's modified Eagle's medium with 10% fetal bovine serum, 100 units/mL penicillin, and 100 μg/mL streptomycin sulfate. On day 2, the cells were transiently co-transfected with the following plasmids by using Lipofectamine reagent (Invitrogen): 0.4 μg/well pSRE-Luc (an SRE-1-driven luciferase reporter construct; Hua et al., 1995 J Biol Chem 270, 29422-7), and 0.1 μg/well a b-gal reporter in which the expression of β-gal is controlled by an actin promoter in a final volume of […]. After incubation for 5 hrs at 37° C., the cells were washed with phosphate-buffered saline and then incubated in 100 μl of Dulbecco's modified Eagle's medium with 10% lipid-depleted serum, […] penicillin, and 100 μg/mL streptomycin sulfate in the absence or presence of fatostatin A. After 20 hrs of incubation, the cells in each well were lysed with 20 μL of 1× Reporter Lysis Buffer (Promega), and aliquots were used for measurement of luciferase (10 μL) and β-galactosidase (10 μL) activities. For luciferase assay, photon production was detected as counts per second in a Wallac 1420 ARVOsx multilabel counter (PerkinElmer). For β-galactosidase assays, hydrolysis of O-nitrophenyl-β-D-galactosidase was measured after incubation for 0.5 h at 37° C. by a microplate reader at the wave length of 405 nm (Tecan). The luciferase activity (counts per second) was normalized by the activity of β-galactosidase (OD units). For overexpression of the N-terminal matured form of SREBP-1c, pCMV-SREBP-1c (1-436) was co-transfected with pSRE-Luc. pSRE-Luc and pCMV-SREBP-1c (1-436) were provided by J. L. Goldstein (University of Texas Southwestern Medical Center). […]

For the next experiment, the system named is 3T3-L1 cells. In words: adipogenesis assay (formation of oil droplets). Further details: key: +: The analogues that completely inhibited the formation of oil droplets in cells were scored to be adipogenesis-inhibiting analogues. Conditions: formation of oil droplets in cells. Type of experiment: cell-based, mouse. How it is done: The adipogenesis assay was performed as described (Choi et al., 2003).

The subject of experiment [2] is endogenous SREBPs. In words: SREBP activation assay (pSRE-Luc luciferase reporter) in CHO-K1 cells. Type of experiment: cell-based, Chinese hamster. The procedure: To confirm that fatostatin impairs the function of SREBPs, the ability of endogenous SREBPs to activate transcription of an SREBP-responsive reporter gene was measured in CHO-K1 cells in the presence or absence of fatostatin (FIG. 18A).
Luciferase reporter assay. On day 0, CHO-K1 cells were plated out onto a 96-well plate in medium A (a 1:1 mixture of Ham's F-12 medium and Dulbecco's modified Eagle's medium, with 5% fetal bovine serum, 100 units/mL penicillin, and 100 μg/mL streptomycin sulfate). On day 2, the cells were transiently co-transfected with pSRE-Luc (an SRE-1-driven luciferase reporter construct) (Hua et al., 1995) and pAc-β-gal (β-gal reporter in which the expression of β-gal is controlled by an actin promoter), using Lipofectamine reagent (Invitrogen). After incubation for 5 h, the cells were washed with phosphate-buffered saline (PBS), and then incubated, in the absence or presence of fatostatin, in medium B (a 1:1 mixture of Ham's F-12 medium and Dulbecco's modified Eagle's medium, with 5% lipid-depleted serum, 100 units/mL penicillin, 100 μg/mL streptomycin sulfate, […], and 50 mM sodium mevalonate). After 20 h of incubation, the cells in each well were lysed, and aliquots were used to measure luciferase and β-galactosidase activities. Luciferase activity was normalized by the activity of β-galactosidase. For overexpression of the N-terminal matured form of SREBP-1c, pCMV-SREBP-1c(1-436) was co-transfected with pSRE-Luc and pAc-β-gal.
Standard SREBP activation assays were performed on the exemplary compounds identified in Table 4 as per the method for Fatostatin A in Example 1. The ability of endogenous SREBPs to activate transcription of an SREBP-responsive reporter gene was measured in the presence or absence of compounds 45-55 and 19 (FIG. 28), compounds 56-61 and 19 (FIG. 29) and compounds 62-66 (FIG. 30) at 5 μM in CHOK1 cells. […] The inhibitory concentrations of compounds 53 (FIG. 31) and compounds 58 and 61 (FIG. 32) were determined.
A general note: In a reporter assay the amount or activity of a reporter protein is the signal.

The mark [3] stands for this setting: entries 1, 19-34 (FIG. 16), None = 15.0759.

As to `CCCc1cc(-c2nc(-c3ccc(C)cc3)cs2)ccn1` [Compound 1, 2-propyl-4-(4-p-tolylthiazol-2-yl)pyridine], the “activation of the SRE-controlled luciferase reporter gene by endogenous SREBPs” value in the experiment with endogenous SREBPs [1] (HEK293 cells, lipid-free serum, varied concentrations) was “decreased in a concentration dependent manner”. In addition, in the experiment with endogenous SREBPs [1] (HEK293 cells, pCMV-SREBP-1c + pSRE-Luc), the “ability of exogenously expressed mature form of SREBP-1 to activate the reporter gene” value is reported as “failed to impair”. The Luc/Gal with endogenous SREBPs [1] (setting [3]) is given as 7.5537; in the experiment with endogenous SREBPs [1] (entries 1, 35-39 (FIG. 17), None = 18), 9.414; in the experiment with endogenous SREBPs [1] (entries 1, 40-44 (FIG. 17), None = 8.2181), 3.4437; with endogenous SREBPs [1] (entries 1-18 (FIG. 15), none = 9.4426) it was 6.2297. In addition, the Inhibition of adipogenesis result in the experiment with 3T3-L1 cells is given as “+”. Also, the “activation of the SRE luciferase reporter gene by endogenous SREBPs” value in the experiment on endogenous SREBPs [2] (CHO-K1 cells, lipid-free serum) is “decreased activation of the reporter gene”.

With `CCCc1cc(-c2nc(-c3ccc(NS(C)(=O)=O)cc3)cs2)ccn1` [Compound 19, N-(4-(2-(2-propylpyridin-4-yl)thiazol-4-yl)phenyl)methanesulfonamide], in the experiment on endogenous SREBPs [1] (setting [3]), the Luc/Gal was found to be 4.1981. Besides, the Inhibition of adipogenesis result in the experiment on 3T3-L1 cells is “+”. In the experiment on endogenous SREBPs [2] (Cricetulus griseus, CHO-K1, 5 μM in CHOK1 cells), this compound registered an inhibition at 5 µM of approximately 45%.

By inhibition is commonly meant the drop in the measured response relative to a control, in per cent.
